Measured values taken from patent US10961228B2, “JAK1 selective inhibitors” (AstraZeneca AB, priority 2017, dated 2021).

Columns and labels:
[1] = system: OVA-challenged Brown Norway rat; experiment: OVA lung inflammation model, eosinophils in broncho alveolar lavage; type: in vivo; settings: for reduction of eosinophils in BAL: inhaled DPI, vs OVA/OVA group 3
Protocol: Brown Norway rats were sensitised and challenged with chicken ovary albumin (OVA) (Clinical and Experimental Allergy, 37 (2007) 973-988). After inhaling an amount of micronized compound within the scope of the present disclosure, the reduction in airway inflammation in the lung of OVA-challenged Brown Norway rat was measured as % reduction of eosinophils in broncho alveolar lavage (BAL) compared to challenged, but untreated rat using the following protocol. As the model control, an i.t. over dose (2*300 μg/kg) of the model reference compound, Budesonide, was used. 74 animals were divided into 8 experimental groups and treated as follows: • Group 1 (Saline/Saline/Air), n=6—Sham (saline) sensitisation at Day0 (S1) and Day7 (S2) and sham (saline) challenged at Day14 (P1). Treatment room air • Group 2 (OVA/Saline/Lactose), n=8—Sensitised at Day0 (S1) and Day7 (S2) with Al(OH)3/OVA mixture followed by the i.t. sham (saline) challenge at Day14 (P1). Treatment DPI Lactose. • Group 3 (OVA/OVA/Lactose), n=12—Sensitised at Day0 (S1) and Day7 (S2) with Al(OH)3/OVA mixture followed by the i.t. OVA challenge at Day14 (P1). […] Treatment i.t. with Budesonide (model reference compound) at 2×300 μg/kg Day14. Twice daily. Prior to start of first sensitisation (S1), the body weight (BW) was recorded and all rats were tail marked with the identification number. The BW was additionally recorded prior to S2 and prior to the termination point (D15). All of the animals' BAL was determined. At the time of termination, the performer(s) (investigator) were blinded to the status of the individual rats, The rats where subcutaneously (s.c.) injected with a mixture of OVA/Al(OH)3 (100 μg OVA:100 mg Alum in 1 ml saline/rat), and intraperitoneally (i.p.) injected with 0.5 ml/rat of B. Pertussis toxin (0.1 μg/ml) at Day 0 and Day 7. Sham sensitisation was performed by s.c. and i.p. injections of isotonic saline with the same volume and strategy. Each exposure system consisted of a flow-past exposure inhalation chamber, rat restraining tubes and a Modified Wright Dust Feed mechanism. Measurements of the aerosol concentration in the inhalation chamber for each dose level was performed by filter sampling at one of the inhalation ports (AP40, 47 mm, Millipore). […] Rats from Group 2 and 3 were exposed to lactose in the restraining tube (Battelle chambers). Target inhaled doses (μg/kg) were calculated assuming exposure duration of 2-10 minutes and a body weight of 250 g using the following formula: The rats were weighed the day prior to OVA challenge. At challenge the rats were anaesthetised with Isoflurane mixture (air and 4% isoflurane) put in supine position with 30-40° angle and instilled with vehicle or compound. This intra-tracheal instillation was performed by using a modified metal cannula with bolus-bulb on the end. Rats were placed in. cages in a supine position with a head up until regaining consciousness. The reference compound was administered twice daily with the second daily administration 6 hours post the first daily administration. Instillation volume: 0.25 mL/rat. Five minutes (5′) before OVA challenge, blood was collected (0.2 ml) from the tongue vein and plasma (60 ul/well) was collected on 96-deepwell plate. The provocation occurred at Day14 (P1) and was applied 2 hours after compound administration. The rats were anaesthetized with Isoflurane mixture (air and 4% isoflurane) put in supine position with 30-40° angle and instilled with the isotonic saline or OVA (0.1 mg/ml). The intra-tracheal instillation was performed. by using a modified metal cannula with bolus-bulb on the end. Rats were placed in cages in a supine position with a head up until regaining consciousness. Sham challenge was performed by i.t. instillation of isotonic saline with the same volume and strategy. Instillation volume: 0.25 ml/rat. At 22 hours post OVA challenge (P1), rats were euthanized with an intraperitoneal injection of 1 ml pentobarbital (50 mg/ml). […]

[2] = molecular target: recombinant JAK1 (amino acids 866-1154) (Homo sapiens (Human), UniProt P23458); experiment: Enzyme inhibition studies, JAK1 (5 mM ATP, Caliper); type: biochemical
Chain of recombinant JAK1 (amino acids 866-1154) (P23458 866-1154): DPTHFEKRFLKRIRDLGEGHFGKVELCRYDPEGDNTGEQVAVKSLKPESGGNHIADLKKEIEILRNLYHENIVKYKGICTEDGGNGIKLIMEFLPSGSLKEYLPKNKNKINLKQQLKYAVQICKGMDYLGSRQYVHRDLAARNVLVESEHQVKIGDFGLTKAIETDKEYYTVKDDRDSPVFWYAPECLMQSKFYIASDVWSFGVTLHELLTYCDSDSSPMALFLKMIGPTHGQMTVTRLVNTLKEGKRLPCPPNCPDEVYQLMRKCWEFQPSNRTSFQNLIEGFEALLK
Summary of the method: (§1)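 N-terminal GST-fused kinase domains from insect cells, run at 5 mM ATP with inhibitor at 30, 3, 0.3, 0.03, 0.003 and 0 μM final.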

[3] = molecular target: recombinant JAK3 (amino acids 781-1124) (Homo sapiens (Human), UniProt P52333); experiment: Enzyme inhibition studies, JAK3 (5 mM ATP, Caliper); type: biochemical
Chain of recombinant JAK3 (amino acids 781-1124) (P52333 781-1124): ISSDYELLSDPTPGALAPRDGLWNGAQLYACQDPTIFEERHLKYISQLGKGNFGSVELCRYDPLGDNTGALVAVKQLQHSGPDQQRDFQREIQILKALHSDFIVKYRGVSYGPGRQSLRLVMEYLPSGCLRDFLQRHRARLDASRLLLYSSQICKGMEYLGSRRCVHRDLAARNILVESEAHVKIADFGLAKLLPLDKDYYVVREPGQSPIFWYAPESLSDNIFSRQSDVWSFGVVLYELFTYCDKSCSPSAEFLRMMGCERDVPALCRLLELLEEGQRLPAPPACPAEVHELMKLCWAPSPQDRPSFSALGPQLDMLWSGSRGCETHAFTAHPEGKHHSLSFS
Summary of the method: as §1

[4] = Plasma drug concentration by LC-MSMS at termination of alopecia areata study; type: in vivo; settings: 1-2 h after last oral dose at 12.5 mg/kg BW, C3H/HeJ mice
Protocol: Blood was sampled from behind the eye in EDTA-coated test tubes (Multivette 300, Sarstedt) and kept on ice. Plasma was obtained by centrifugation (4° C., 4000 G, 5 min) and 50 μL transferred to a 96-well NUNC plate and stored at −20° C. until analyzed with regards to drug concentration by LC-MSMS.

SMILES	inhibition of eosinophils ([1]; i.t. over dose 2*300, twice daily Day14 (Group 8)) [%]	max inhibition of eosinophils ([1]; compared to OVA control (group 3), plateau from the 0.6 μg/kg dose) [%]	reduction of eosinophils in BAL ([1]; lung dose 0.08 μg/kg, not significant) [%]	reduction of eosinophils in BAL ([1]; lung dose 0.11 μg/kg, not significant) [%]	reduction of eosinophils in BAL ([1]; lung dose 0.6 μg/kg, p<0.01) [%]	reduction of eosinophils in BAL ([1]; lung dose 4.76 μg/kg, p<0.01) [%]	IC50 [2] [µM]	IC50 [3] [µM]	mean plasma exposure (total concentration) [4] [nM]
CCCC1O[C@@H]2C[C@H]3[C@@H]4CCC5=CC(=O)C=C[C@]5(C)[C@H]4[C@@H](O)C[C@]3(C)[C@]2(C(=O)CO)O1 (stereo partly drawn) [Budesonide, reference compound]	97								
COC[C@H](C(=O)Nc1cccc2c(-c3nc(Nc4cccc(S(C)(=O)=O)c4F)ncc3F)c[nH]c12)N1CCN(C)CC1 [Example 35, (R)-N-(3-(5-fluoro-2-(2-fluoro-3-(methylsulfonyl)phenylamino)pyrimidin-4-yl)-1H-indol-7-yl)-3-methoxy-2-(4-methylpiperazin-1-yl)propanamide]		68	7	28	68	61	< 0.003	> 30	338
